Measurements taken from US11725037B2, “Peptide dual agonists of GIPR and GLP2R” (University of Copenhagen, priority 2017, dated 2023).
Ends that are not written are not given here.

Assays:
human GLP-2 receptor = molecular target: T1, human GLP-2 receptor (Homo sapiens, UniProt O95838); test: cAMP accumulation assay (HitHunter cAMP XS) in transiently transfected COS-7 cells expressing the human GLP-2 receptor; format: cell-based; details: for Emax at 10 µM: COS-7, read-out: Emax (10 μM), GLP-2 receptor; for fold (fold change of native GLP-2), GLP-2 receptor: EC50 relative to native GLP-2; for EC50 / logEC50, GLP-2 receptor: cAMP, COS-7; for logEC50, GLP-2 receptor: log value
T1 construct: host or cells: COS-7 (transient, calcium phosphate; pCMV-Script vector)
T1 sequence (O95838 1-553): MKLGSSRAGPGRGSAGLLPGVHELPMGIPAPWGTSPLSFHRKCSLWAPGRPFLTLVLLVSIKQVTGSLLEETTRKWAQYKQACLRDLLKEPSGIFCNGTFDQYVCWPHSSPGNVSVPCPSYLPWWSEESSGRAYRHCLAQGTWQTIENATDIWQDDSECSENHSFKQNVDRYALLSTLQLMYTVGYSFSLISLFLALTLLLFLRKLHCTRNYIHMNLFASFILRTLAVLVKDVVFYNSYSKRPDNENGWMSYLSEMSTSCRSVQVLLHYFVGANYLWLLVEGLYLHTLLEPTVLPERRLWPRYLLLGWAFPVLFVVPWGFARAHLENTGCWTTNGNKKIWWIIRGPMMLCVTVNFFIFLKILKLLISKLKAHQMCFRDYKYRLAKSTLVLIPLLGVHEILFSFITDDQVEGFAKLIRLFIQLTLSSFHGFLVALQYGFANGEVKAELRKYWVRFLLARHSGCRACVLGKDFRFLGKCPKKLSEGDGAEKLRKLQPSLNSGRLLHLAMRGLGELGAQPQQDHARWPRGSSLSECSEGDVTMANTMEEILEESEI
Procedure: (§1) The day after, the cells were washed twice with Hepes buffered saline (HBS) buffer and incubated with HBS and 1 mM 3-isobutyl-1-methylxanthine (IBMX) for 30 min at 37° C. Ligands were added and incubated for 30 min at 37° C. The HitHunter™ cAMP XS assay (DiscoveRx) was carried out according to the manufacturer's instructions.

[1] = tested on: mouse mesenchymal osteoblast precursor cell line KS483; test: Osteoblast differentiation assay: intracellular alkaline phosphatase activity (ALP) at day 8; format: cell-based; details: 1 μM, day 8, KS483 cells, mean±sem, n=6
Procedure: Aim: Testing the effects of 2 test compounds on differentiation and activity of osteoblasts in vitro in a preliminary set-up.
Method: One concentration of each test compound (1 μM) is tested. Effects on osteoblast differentiation are studied using a mouse mesenchymal osteoblast precursor cell line KS483. The cells are cultured on plastic surface in 96-well plates for 8 days, allowing them to differentiate into mature bone-forming osteoblasts. Baseline with vehicle • 1. Compound 3: Vehicle • 2. Compound 5: GIP-GLP-2 agonist 3 (SEQ ID NO:3) • 3. Compound 6: GIP-GLP-2 agonist 19 (SEQ ID NO:19)
In osteoblast differentiation assay: Intracellular alkaline phosphatase activity (ALP) at day 8 as an index of the number of mature osteoblasts formed.

human GIP receptor = molecular target: T2, human GIP receptor (Homo sapiens, UniProt P48546); test: cAMP accumulation assay (HitHunter cAMP XS) in transiently transfected COS-7 cells expressing the human GIP receptor; format: cell-based; details: for Emax at 10 µM: COS-7, read-out: Emax (10 μM), GIP receptor; for potency (and efficacy) on the GIP receptor compared with native GIP, in words / fold (fold change of native GIP), GIP receptor / EC50: Table 1; for fold (fold change of native GIP), GIP receptor: EC50 relative to native GIP; for EC50: cAMP, COS-7
T2 construct: host or cells: COS-7 (transient, calcium phosphate; pCMV-Script vector)
T2 sequence (P48546 22-466): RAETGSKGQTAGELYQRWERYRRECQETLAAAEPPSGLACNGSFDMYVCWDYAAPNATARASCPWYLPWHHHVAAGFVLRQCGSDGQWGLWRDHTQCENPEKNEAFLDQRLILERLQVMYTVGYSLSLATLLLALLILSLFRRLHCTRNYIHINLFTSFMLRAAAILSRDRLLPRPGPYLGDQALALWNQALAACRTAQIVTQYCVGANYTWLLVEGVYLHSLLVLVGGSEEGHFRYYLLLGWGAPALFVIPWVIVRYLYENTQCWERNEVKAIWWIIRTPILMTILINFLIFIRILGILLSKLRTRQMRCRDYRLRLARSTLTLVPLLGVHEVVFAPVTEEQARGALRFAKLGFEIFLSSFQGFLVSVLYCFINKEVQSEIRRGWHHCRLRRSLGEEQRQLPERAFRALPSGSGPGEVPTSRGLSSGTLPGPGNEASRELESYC
Procedure: as §1

[2] = tested on: bone resorption (serum C-terminal cross-linking telopeptide of type I collagen, CTX); test: Human study 1: bone resorption by serum CTX after subcutaneous injection of GIP or GLP-2; format: in vivo; details: for reduction in bone resorption (CTX): 200 μg GIP and 800 μg GLP-2, each alone, s.c., restated in Example 4; for bone resorption (CTX), maximum effect, % of base line: healthy young men
Procedure: Method: Eight healthy young men were enrolled. […] Participants arrived in the morning (fasted overnight) and received the injection around 8.30 a.m. Blood samples were collected before (−25 and −10 min) and every 30 minutes after injection (30, 60, 90, 120, 180 and 240 min). After last participant's last visit, bone resorption was determined by measurements of serum C-terminal cross-linking telopeptide of type I collagen (CTX; IDS Immunodiagnostic Systems GmbH, Frankfurt am Main, Germany)

[3] = logEC50, GLP-2 receptor, Table 1
[4] = logEC50, GIP receptor, log value

CC[C@H](C)[C@H](NC(=O)[C@H](Cc1ccccc1)NC(=O)[C@H](CC(=O)O)NC(=O)[C@H](CCCNC(=N)N)NC(=O)[C@H](C)NC(=O)[C@H](C)NC(=O)[C@H](CC(C)C)NC(=O)[C@H](CC(N)=O)NC(=O)[C@H](CC(=O)O)NC(=O)[C@H](CC(C)C)NC(=O)[C@@H](NC(=O)[C@@H](NC(=O)[C@H](CO)NC(=O)[C@H](Cc1ccc(O)cc1)NC(=O)[C@H](CC(=O)O)NC(=O)[C@H](CO)NC(=O)[C@@H](NC(=O)[C@H](Cc1ccccc1)NC(=O)[C@@H](NC(=O)CNC(=O)[C@H](CC(=O)O)NC(=O)[C@H](C)NC(=O)[C@@H](N)Cc1c[nH]cn1)[C@@H](C)O)[C@@H](C)CC)[C@@H](C)O)[C@@H](C)CC)C(=O)N[C@@H](CC(N)=O)C(=O)N[C@@H](Cc1c[nH]c2ccccc12)C(=O)N[C@@H](CC(C)C)C(=O)N[C@H](C(=O)N[C@@H](CCC(N)=O)C(=O)N[C@H](C(=O)N[C@@H](CCCCN)C(=O)N[C@H](C(=O)N[C@H](C(=O)N[C@@H](CC(=O)O)C(=O)O)[C@@H](C)O)[C@@H](C)CC)[C@@H](C)O)[C@@H](C)CC [Co-agonist 3]
Emax at 10 µM (human GLP-2 receptor): 100% | fold (fold change of native GLP-2), GLP-2 receptor (human GLP-2 receptor; Table 1): 18 fold | EC50 (human GLP-2 receptor; [3]): 21.4 nM | ALP activity compared to vehicle [1]: 112±5.6% | Emax at 10 µM (human GIP receptor): 100% | potency (and efficacy) on the GIP receptor compared with native GIP, in words (human GIP receptor): same potency as native GIP(1-42) | fold (fold change of native GIP), GIP receptor (human GIP receptor): 1.2 fold | EC50 (human GIP receptor; [4]): 0.107 nM

CC[C@H](C)[C@H](NC(=O)[C@H](Cc1ccccc1)NC(=O)[C@H](CC(=O)O)NC(=O)[C@H](CCCNC(=N)N)NC(=O)[C@H](C)NC(=O)[C@H](C)NC(=O)[C@H](CC(C)C)NC(=O)[C@H](CC(N)=O)NC(=O)[C@H](CC(=O)O)NC(=O)[C@H](CC(C)C)NC(=O)[C@@H](NC(=O)[C@@H](NC(=O)[C@H](CO)NC(=O)[C@H](Cc1ccc(O)cc1)NC(=O)[C@H](CC(=O)O)NC(=O)[C@H](CO)NC(=O)[C@@H](NC(=O)[C@H](Cc1ccccc1)NC(=O)[C@@H](NC(=O)CNC(=O)[C@H](CC(=O)O)NC(=O)[C@H](C)NC(=O)[C@@H](N)Cc1c[nH]cn1)[C@@H](C)O)[C@@H](C)CC)[C@@H](C)O)[C@@H](C)CC)C(=O)N[C@@H](CC(N)=O)C(=O)N[C@@H](Cc1c[nH]c2ccccc12)C(=O)N[C@@H](CC(C)C)C(=O)N[C@H](C(=O)N[C@@H](CCC(N)=O)C(=O)N[C@H](C(=O)N[C@@H](CCCCN)C(=O)NCC(=O)N[C@@H](CCCCN)C(=O)N[C@@H](CCCCN)C(=O)O)[C@@H](C)O)[C@@H](C)CC [Co-agonist 19]
Emax at 10 µM (human GLP-2 receptor): 91% | potency and efficacy on the GLP-2R compared with native GLP-2, in words (human GLP-2 receptor; Table 1): almost the same potency and efficacy | ALP activity compared to vehicle [1]: 115±8.9% | Emax at 10 µM (human GIP receptor): 93% | potency (and efficacy) on the GIP receptor compared with native GIP, in words (human GIP receptor): almost the same potency and efficacy | EC50 (human GIP receptor; [4]): 0.251 nM

CC[C@H](C)[C@H](NC(=O)[C@H](CO)NC(=O)[C@H](Cc1ccc(O)cc1)NC(=O)[C@H](CC(=O)O)NC(=O)[C@H](CO)NC(=O)[C@@H](NC(=O)[C@H](Cc1ccccc1)NC(=O)[C@@H](NC(=O)CNC(=O)[C@H](CCC(=O)O)NC(=O)[C@H](C)NC(=O)[C@@H](N)Cc1ccc(O)cc1)[C@@H](C)O)[C@@H](C)CC)C(=O)N[C@@H](C)C(=O)N[C@@H](CCSC)C(=O)N[C@@H](CC(=O)O)C(=O)N[C@@H](CCCCN)C(=O)N[C@H](C(=O)N[C@@H](Cc1c[nH]cn1)C(=O)N[C@@H](CCC(N)=O)C(=O)N[C@@H](CCC(N)=O)C(=O)N[C@@H](CC(=O)O)C(=O)N[C@@H](Cc1ccccc1)C(=O)N[C@H](C(=O)N[C@@H](CC(N)=O)C(=O)N[C@@H](Cc1c[nH]c2ccccc12)C(=O)N[C@@H](CC(C)C)C(=O)N[C@@H](CC(C)C)C(=O)N[C@@H](C)C(=O)N[C@@H](CCC(N)=O)C(=O)N[C@@H](CCCCN)C(=O)NCC(=O)N[C@@H](CCCCN)C(=O)N[C@@H](CCCCN)C(=O)N[C@@H](CC(N)=O)C(=O)N[C@@H](CC(=O)O)C(=O)N[C@@H](Cc1c[nH]c2ccccc12)C(=O)N[C@@H](CCCCN)C(=O)N[C@@H](Cc1c[nH]cn1)C(=O)N[C@@H](CC(N)=O)C(=O)N[C@H](C(=O)N[C@H](C(=O)N[C@@H](CCC(N)=O)C(=O)O)[C@@H](C)O)[C@@H](C)CC)C(C)C)[C@@H](C)CC [GIP, reference compound]
logEC50, GLP-2 receptor (human GLP-2 receptor; Table 1): no activation | logEC50, GLP-2 receptor (human GLP-2 receptor; Table 2): no activation | reduction in bone resorption (CTX) [2]: ~50% | bone resorption (CTX), maximum effect, % of base line ([2]; human GIP 200 μg s.c., 90 min after injection): 56.2±11.2 % of base line

CC[C@H](C)[C@H](NC(=O)[C@H](Cc1ccccc1)NC(=O)[C@H](CC(=O)O)NC(=O)[C@H](CCCNC(=N)N)NC(=O)[C@H](C)NC(=O)[C@H](C)NC(=O)[C@H](CC(C)C)NC(=O)[C@H](CC(N)=O)NC(=O)[C@H](CC(=O)O)NC(=O)[C@H](CC(C)C)NC(=O)[C@@H](NC(=O)[C@@H](NC(=O)[C@H](CC(N)=O)NC(=O)[C@H](CCSC)NC(=O)[C@H](CCC(=O)O)NC(=O)[C@H](CC(=O)O)NC(=O)[C@H](CO)NC(=O)[C@H](Cc1ccccc1)NC(=O)[C@H](CO)NC(=O)CNC(=O)[C@H](CC(=O)O)NC(=O)[C@H](C)NC(=O)[C@@H](N)Cc1c[nH]cn1)[C@@H](C)O)[C@@H](C)CC)C(=O)N[C@@H](CC(N)=O)C(=O)N[C@@H](Cc1c[nH]c2ccccc12)C(=O)N[C@@H](CC(C)C)C(=O)N[C@H](C(=O)N[C@@H](CCC(N)=O)C(=O)N[C@H](C(=O)N[C@@H](CCCCN)C(=O)N[C@H](C(=O)N[C@H](C(=O)N[C@@H](CC(=O)O)C(=O)O)[C@@H](C)O)[C@@H](C)CC)[C@@H](C)O)[C@@H](C)CC [GLP-2, reference compound]
Emax at 10 µM (human GIP receptor): 22% | EC50 (human GIP receptor; EC50(nM), GIP receptor): 56 nM | reduction in bone resorption (CTX) [2]: ~50% | bone resorption (CTX), maximum effect, % of base line ([2]; human GLP-2 800 μg s.c., 180 min after administration): 63.4±3.4 % of base line

HAEGTFSDEYSTILDNLAARDFINWLIQTKITD [Co-agonist 5]
Emax at 10 µM (human GLP-2 receptor): 91% | EC50 (human GLP-2 receptor; EC50(nM), GLP-2 receptor, Table 1): 6.2 nM | fold (fold change of native GLP-2), GLP-2 receptor (human GLP-2 receptor; Table 1): 5.2 fold | Emax at 10 µM (human GIP receptor): 75% | fold (fold change of native GIP), GIP receptor (human GIP receptor): 5124 fold

HGDGTFISDYSTILDNLAARDFINWLIQTKITD [Co-agonist 11]
Emax at 10 µM (human GLP-2 receptor): 87% | fold (fold change of native GLP-2), GLP-2 receptor (human GLP-2 receptor; Table 1): 20 fold | EC50 (human GLP-2 receptor; [3]): 24 nM | Emax at 10 µM (human GIP receptor): 95% | fold (fold change of native GIP), GIP receptor (human GIP receptor): 36 fold | EC50 (human GIP receptor; [4]): 3.16 nM

HVDGTFISDYSTILDNLAARDFINWLIQTKITD [Co-agonist 12]
Emax at 10 µM (human GLP-2 receptor): 81% | fold (fold change of native GLP-2), GLP-2 receptor (human GLP-2 receptor; Table 1): 21 fold | EC50 (human GLP-2 receptor; [3]): 25.1 nM | Emax at 10 µM (human GIP receptor): 96% | fold (fold change of native GIP), GIP receptor (human GIP receptor): 12 fold | EC50 (human GIP receptor; [4]): 1.1 nM
